# Assay results published in patent US11578079B2, “SUMO inhibitor compounds and uses thereof” (CITY OF HOPE, priority 2018, dated 2023).
# Key:
# SUMO = biological target: T1, SUMO (Homo sapiens, UniProt Q9UBT2); assay: SUMO activity (Table I, biological activities); format: biochemical; design: key: + (less active); ++ (active); +++ (most active)
# T1 sequence (Q9UBT2 1-640): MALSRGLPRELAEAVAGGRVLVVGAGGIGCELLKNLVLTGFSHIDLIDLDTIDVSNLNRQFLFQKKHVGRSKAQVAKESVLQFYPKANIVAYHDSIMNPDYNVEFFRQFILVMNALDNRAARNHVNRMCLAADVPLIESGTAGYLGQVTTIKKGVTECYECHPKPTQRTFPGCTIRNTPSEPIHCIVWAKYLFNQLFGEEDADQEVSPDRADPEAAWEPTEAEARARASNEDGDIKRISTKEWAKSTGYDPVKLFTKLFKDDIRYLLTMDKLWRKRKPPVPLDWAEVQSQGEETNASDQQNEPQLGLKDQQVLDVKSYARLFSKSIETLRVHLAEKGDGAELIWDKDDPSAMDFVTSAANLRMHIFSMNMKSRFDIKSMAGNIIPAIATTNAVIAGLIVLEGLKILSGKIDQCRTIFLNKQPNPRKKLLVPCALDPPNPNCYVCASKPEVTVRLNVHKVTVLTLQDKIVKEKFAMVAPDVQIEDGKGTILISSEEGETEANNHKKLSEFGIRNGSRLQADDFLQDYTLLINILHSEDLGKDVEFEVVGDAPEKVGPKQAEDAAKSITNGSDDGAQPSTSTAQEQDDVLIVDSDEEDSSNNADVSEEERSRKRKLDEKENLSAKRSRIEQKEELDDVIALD
# T1 sequence (Q9UBE0 1-346 partner): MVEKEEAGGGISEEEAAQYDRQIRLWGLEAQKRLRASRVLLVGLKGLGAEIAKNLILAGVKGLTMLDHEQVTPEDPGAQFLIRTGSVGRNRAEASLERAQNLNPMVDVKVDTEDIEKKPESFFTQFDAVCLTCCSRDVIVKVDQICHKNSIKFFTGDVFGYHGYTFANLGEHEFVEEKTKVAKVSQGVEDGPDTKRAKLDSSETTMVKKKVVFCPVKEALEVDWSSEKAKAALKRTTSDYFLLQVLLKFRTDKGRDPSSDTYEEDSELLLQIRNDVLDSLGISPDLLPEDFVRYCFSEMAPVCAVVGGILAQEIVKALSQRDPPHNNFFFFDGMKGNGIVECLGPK
# c-Myc = c-Myc activity (Table I, biological activities); design: key: + (less active); ++ (active); +++ (most active)
Structure (SMILES),SUMO (SUMO),c-Myc (c-Myc)
COC(=O)C1=C(C(=O)NC2CCN(C(C)C)CC2)C2C=CC1(C(Cc1ccccc1)Nc1ccccc1)O2 (stereo not shown) [Compound 277],+++,++
COC(=O)C1=C(C(=O)Nc2ccc3c(c2)OCO3)C2C=CC1(C(Cc1ccccc1)Nc1ccccc1)O2 (stereo not shown) [Compound 309],+,+
COC(=O)C1=C(C(=O)NCCN(C)C)C2C=CC1(C(Cc1ccccc1)Nc1c(F)cccc1F)O2 (stereo not shown) [Compound 432],++,+
COC(=O)C1=C(C(=O)NC2CCN(C)CC2)C2C=CC1(C(Cc1ccccc1)Nc1cccc(Oc3ccccc3)c1)O2 (stereo not shown) [Compound 320],+++,++
COC(=O)C1=C(C(=O)NCCN2CCCC2)C2C=CC1(C(Cc1ccccc1)Nc1cc(F)cc(Cl)c1)O2 (stereo not shown) [Compound 444],+++,++
COC(=O)C1=C(C(=O)Nc2ccc(OCCN3CCN(C)CC3)cc2)C2C=CC1(C(Cc1ccccc1)Nc1ccccc1)O2 (stereo not shown) [Compound 501],+++,+
COC(=O)C1=C(C(=O)NC2CCN(C)CC2)C2C=CC1(C(Cc1ccccc1)Nc1ccccc1)O2 (stereo not shown) [Compound 195],+++,++
COC(=O)C1=C(C(=O)NNc2ccccc2)C2C=CC1(C(Cc1ccccc1)Nc1cc(F)cc(Cl)c1)O2 (stereo not shown) [Compound 215],++,+
COC(=O)C1=C(C(=O)NC2CCN(C)CC2)C2C=CC1(C(Cc1ccc(C(F)(F)F)cc1)Nc1ccccc1)O2 (stereo not shown) [Compound 488],++,++
COC(=O)C1=C(C(=O)NC2CCN(C(=O)c3ccc(F)cc3)CC2)C2CCC1(C(Cc1ccccc1)Nc1ccccc1)O2 (stereo not shown) [Compound 370],+,+
COC(=O)C1=C(C(=O)NNc2ccccn2)C2C=CC1(C(Cc1ccccc1)Nc1ccccc1)O2 (stereo not shown) [Compound 221],++,+
CCOC(=O)C1=C(C(=O)Nc2ccccc2F)C2C=CC1(C(Nc1ccccc1)c1ccc(CN3CCOCC3)cc1)O2 (stereo not shown) [Compound 595],++,+
COC(=O)C1=C(C(=O)Nc2ccc(OCCN3CCCC3)cc2)C2C=CC1(C(Cc1ccccc1)Nc1ccccc1)O2 (stereo not shown) [Compound 505],++,+
COC(=O)C1=C(C(=O)NC2CCN(C)CC2)C2C=CC1(C(Cc1ccccc1)Nc1ccccc1F)O2 (stereo not shown) [Compound 272],++,+
CCN(CC)CCNC(=O)C1=C(C(=O)OC)C2(C(Cc3ccccc3)Nc3ccc(F)cc3)C=CC1O2 (stereo not shown) [Compound 375],++,+
COC(=O)C1=C(C(=O)Nc2cccnc2)C2C=CC1(C(Cc1ccccc1)Nc1cc(F)cc(F)c1)O2 (stereo not shown) [Compound 241],++,++
COC(=O)C1=C(C(=O)OC)C2(C(Cc3ccccc3)Nc3cccc(Oc4ccccc4)c3)C=CC1O2 (stereo not shown) [Compound 307],+++,+
COC(=O)C1=C(C(=O)NCCN(C)C)C2C=CC1(C(Cc1ccccc1)Oc1ccccc1)O2 (stereo not shown) [Compound 438],++,++
COC(=O)C1=C(C(=O)Nc2ccccc2)C2C=CC1(C(Cc1ccccc1)Nc1cccc(CO)c1)O2 (stereo not shown) [Compound 528],++,++

Structure (SMILES),SUMO (SUMO),c-Myc (c-Myc)
CCOC(=O)C1=C(C(=O)Nc2ccccc2Oc2ccccc2)C2C=CC1(C(Nc1ccccc1)c1ccc(CN3CCOCC3)cc1)O2 (stereo not shown) [Compound 608],+,+
COC(=O)C1=C(C(=O)Nc2ccc(N3CCN(C)CC3)c(F)c2)C2C=CC1(C(Cc1ccccc1)Nc1ccccc1)O2 (stereo not shown) [Compound 494],+,+
COC(=O)C1=C(C(=O)NCCN(C)C)C2(C)C=CC1(C(Cc1ccccc1)Nc1ccccc1)O2 (stereo not shown) [Compound 594],++,+
COC(=O)C1=C(C(N)=O)C2(C)C=CC1(C(Cc1ccccc1)Nc1ccccc1)O2 (stereo not shown) [Compound 294],++,
COC(=O)C1=C(C(=O)OC)C2(C(Nc3ccccc3)c3ccc4ccccc4c3)C=CC1O2 (stereo not shown) [Compound 632],+++,
COC(=O)C1=C(C(=O)OC)C2(C(Cc3ccccc3Br)Nc3ccccc3)C=CC1O2 (stereo not shown) [Compound 667],++,
COC(=O)C1=C(C(=O)NCCN(C)C)C2CCC1(C(Cc1ccccc1Cl)Nc1ccccc1)O2 (stereo not shown) [Compound 691],++,
C=CCC(Nc1ccccc1)C12C=CC(O1)C(C(=O)OC)=C2C(=O)OC (stereo not shown) [Compound 407],++,
CCOC(=O)C1=C(C(=O)OCC)C2(C(Cc3ccccc3)Nc3c(F)cccc3F)C=CC1O2 (stereo not shown) [Compound 230],++,
CC(C)NC(=O)C1=C(C(=O)NC(C)C)C2(C(Cc3ccccc3)Nc3ccccc3)C=CC1O2 (stereo not shown) [Compound 159],+,
COC(=O)C1=C(C(=O)OC)C2(C(Cc3ccc(C)cc3)Nc3ccccc3)C=CC1O2 (stereo not shown) [Compound 627],+++,
COC(=O)C1=C(C(=O)Nc2ccc(C)c(F)c2)C2C=CC1(C(Cc1ccccc1)Oc1ccccc1)O2 (stereo not shown) [Compound 347],++,
COC(=O)C1=C(C(=O)OC)C2(C(Nc3ccccc3)C3CCOCC3)C=CC1O2 (stereo not shown) [Compound 192],++,
COC(=O)C1=C(C(=O)OC)C2(C(Cc3ccc(OC)cc3)Nc3ccccc3)C=CC1O2 (stereo not shown) [Compound 633],+++,
CCOc1cccc(NC(Cc2ccccc2)C23C=CC(O2)C(C(=O)O)=C3C(=O)OC)c1 (stereo not shown) [Compound 246],+,
COC(=O)C1=C(C(=O)OC)C2(C(Cc3ccccc3C)Nc3ccccc3)C=CC1O2 (stereo not shown) [Compound 648],++,
C#CCNC(=O)C1=C(C(=O)OC)C2(C(Cc3ccccc3)Nc3ccccc3)C=CC1O2 (stereo not shown) [Compound 155],++,
COC(=O)C1=C(C(=O)Nc2ccc(C)c(F)c2)C2C=CC1(C1OCCO1)O2 (stereo not shown) [Compound 485],+,
COC(=O)C1=C(C(=O)OC)C2(C(Cc3ccc(CCO)cc3)Nc3ccccc3)C=CC1O2 (stereo not shown) [Compound 664],++,

Structure (SMILES),SUMO (SUMO),c-Myc (c-Myc)
COC(=O)C1=C(C(=O)Nc2ccc(OC)nc2)C2C=CC1(C(Cc1ccccc1)Nc1ccccc1)O2 (stereo not shown) [Compound 199],++,
COC(=O)C1=C(C(=O)OC)C2(C(Cc3cccc(Cl)c3)Nc3ccccc3)C=CC1O2 (stereo not shown) [Compound 663],++,
COC(=O)C1=C(C(=O)OC)C2(C(Cc3ccc(CC4CCOCC4)cc3)Nc3ccccc3)C=CC1O2 (stereo not shown) [Compound 676],++,
COC(=O)C1=C(C(=O)OC)C2(C(Nc3ccccc3)c3ccc4nc(Cl)ccc4c3)C=CC1O2 (stereo not shown) [Compound 675],++,
COC(=O)C1=C(C(=O)NC2CCN(C(=O)OC(C)(C)C)CC2)C2C=CC1(C(Cc1ccccc1)Nc1cc(F)cc(F)c1)O2 (stereo not shown) [Compound 255],+,
COC(=O)C1=CC2(C(Cc3ccccc3)N(C)c3ccccc3)C=CC1O2 (stereo not shown) [Compound 284],++,
COC(=O)C1=C(C(=O)Nc2ccc(Oc3ccccc3)cc2)C2C=CC1(C(Cc1ccccc1)Nc1ccccc1)O2 (stereo not shown) [Compound 296],++,
COC(=O)C1=C(C(=O)OC)C2(C(Cc3ccc(-c4cc[nH]n4)cc3)Nc3ccccc3)C=CC1O2 (stereo not shown) [Compound 698],+++,
COC(=O)C1=C(C(=O)OC)C2(C(Nc3ccccc3)c3cccc4ccccc34)C=CC1O2 (stereo not shown) [Compound 637],+++,
NC(=O)C1=C(C(N)=O)C2(C(Cc3ccccc3)Nc3ccccc3)C=CC1O2 (stereo not shown) [Compound 202],+,
COC(=O)C1=C(C(=O)Nc2ccc(OC)cc2)C2C=CC1(C(Cc1ccccc1)Oc1ccc(F)cc1)O2 (stereo not shown) [Compound 479],++,
O=C(O)C1=C(C(=O)Nc2ccccc2)C2C=CC1(C(Cc1ccccc1)Nc1ccccc1)O2 (stereo not shown) [Compound 174],+,
CCCNC(=O)C1=C(C(=O)OC)C2(C(Cc3ccccc3)Nc3ccccc3)C=CC1O2 (stereo not shown) [Compound 150],++,
CCOC(=O)C1=C(C(=O)OCC)C2(C(Cc3ccccc3)Nc3ccccc3)C=CC1(CO)O2 (stereo not shown) [Compound 265],++,
COC(=O)C1=C(C(=O)OC)C2(C(Cc3ccc(OC(F)(F)F)cc3)Nc3ccccc3)C=CC1O2 (stereo not shown) [Compound 647],++,
COC(=O)C1=C(C(=O)OC)C2(C(Cc3ccc(C(C)C)cc3)Nc3ccccc3)C=CC1O2 (stereo not shown) [Compound 670],++,
COC(=O)C1=C(C(=O)OC)C2(C(Cc3ccccc3)Oc3ccccc3)C=CC1O2 (stereo not shown) [Compound 271],++,
COC(=O)C1=C(C(=O)NC(C)C)C2C=CC1(C(Cc1ccccc1)Nc1ccccc1)O2 (stereo not shown) [Compound 153],++,
COC(=O)C1=C(C(=O)OC)C2(C(Cc3ccc(Cl)c(Cl)c3)Nc3ccccc3)C=CC1O2 (stereo not shown) [Compound 642],+++,
